Measurements reported in EP2022493A1, “Composition comprising at least one optically active phthalamide derivative for controlling animal parasites” (Bayer CropScience AG, priority 2007, dated 2009).

How the values were obtained:
[1] = tested on: Lucilia cuprina larvae; assay: Lucilia cuprina - test (larvae); assay type: in vivo; conditions: in Ovis aries, read-out: activity (mortality in %)
Procedure: (§1) Solvent: dimethyl sulfoxide
(§2) To produce a suitable preparation of active compound, 10 mg of active compound are dissolved in 0.5 ml solvent, and the concentrate is diluted with water to the desired concentration.
Approximately 20 -30 (Lucilia cuprina larvae) are transferred into a test tube containing 1cm^3 of minced horse meat and 0.5 ml aqueous dilution of test compound.
After the specified period of time, mortality in % is determined. 100 % means that all the larvae have been killed; 0 % means that none of the larvae have been killed.

[2] = tested on: Boophilus microplus; assay: Boophilus microplus - test (injection into adult ticks); assay type: in vivo; conditions: application rate of 20 µg/animal; injected into the abdomen of adult ticks; seven days
Procedure: Boophilus microplus - test Solvent: dimethylsulfoxide To produce a suitable preparation of active compound, 1 part by weight of active compound is mixed with the stated amount of solvent, and the concentrate is diluted with containing solvent to the desired concentration. Adult ticks (Boophilus microplus) are treated by injected with compound solution of the desired concentration into the abdomen. Ticks are transferred into replica plates and incubated in a climate chamber for seven days. Eggs which are not clearly fertile or infertile are further incubated for another 35 days until larvae hatch from the untreated controls. After the specified period of time, the laying of fertile eggs in % is determined. 100 % means that all eggs have been fertile; 0 % means that none of the eggs have been fertile.

[3] = tested on: Musca domestica; assay: Musca domestica - test; assay type: in vivo; conditions: application rate of 100ppm, adults
Procedure: as §1, §2
Prior to the assay, a piece or kitchen sponge is soaked with a mixture of sugar and compound solution and placed into a container. 10 adults (Musca domestica) are placed into the container and closed with a perforated lid.
After the specified period of time, mortality in % is determined. 100 % means that all the flies have been killed; 0 % means that none of the flies have been killed.

[4] = Determination of the logP values by HPLC on reversed-phase column (C 18); assay type: physicochemical
Procedure: Determination of the logP values:
The lambda max values were determined in the maxima of the chromatographic signals using the UV spectra from 190 nm to 400 nm.

[5] = 0.001 m aqueous nh4hco3/acetonitrile, method [c]: 0.001 molar aqueous NH4HCO3 solution and acetonitrile at pH 7.8, linear gradient from 10 % to 95 % acetonitrile (v/v), HPLC reversed-phase C 18, 40 °C
[6] = 0.1% aqueous phosphoric acid/acetonitrile, method [a]: 0.1% aqueous phosphoric acid and acetonitrile at pH 2.3, linear gradient from 10 to 95 % (v/v) acetonitrile, HPLC reversed-phase C 18, 40 °C
[7] = 0.001 m aqueous nh4hco3/acetonitrile, HPLC, reversed-phase C 18, 40 °C, [c] 0.001 molar aqueous NH4HCO3 solution and acetonitrile at pH 7.8, linear gradient from 10 % to 95 % acetonitrile (v/v)
[8] = 0.1% aqueous phosphoric acid/acetonitrile, HPLC, reversed-phase C 18, 40 °C, [a] 0.1% aqueous phosphoric acid and acetonitrile at pH 2.3, linear gradient from 10 to 95 % (v/v) acetonitrile

Compound | mortality at 100 ppm [1] [%] | activity (laying of fertile eggs in %) [2] [%] | mortality at 100 ppm [3] [%] | chromatographic logP [4, 5] | chromatographic logP [4, 6] | chromatographic logP [4, 7] | chromatographic logP [4, 8] | chromatographic logP ([4]; 0.1% aqueous formic acid/acetonitrile, HPLC, reversed-phase C 18, 40 °C, [b] 0.1% aqueous formic acid and acetonitrile at pH 2.7, linear gradient from 10 % to 95 % (v/v) acetonitrile)
Cc1cc(C(F)(C(F)(F)F)C(F)(F)F)ccc1NC(=O)c1cccc(I)c1C(=O)N[C@@H](C)CS(C)(=O)=O [Compound 1] | ≥ 80 | ≥ 80 | ≥ 80 | 3.2 | 3.18 |  |  | 
CCS(=O)(=O)C[C@H](C)NC(=O)c1c(I)cccc1C(=O)Nc1ccc(C(C(F)(F)F)C(F)(F)F)cc1C [Compound 23] | ≥ 80 |  | ≥ 80 |  |  |  |  | 
CSC[C@H](C)NC(=O)c1c(I)cccc1C(=O)Nc1ccc(C(C(F)(F)F)C(F)(F)F)cc1C [Compound 24] | ≥ 80 | ≥ 80 | ≥ 80 |  |  |  |  | 
Cc1cc(C(C(F)(F)F)C(F)(F)F)ccc1NC(=O)c1cccc(I)c1C(=O)N[C@@H](C)CS(C)(=O)=O [Compound 48] | ≥ 80 | ≥ 80 | ≥ 80 |  |  |  |  | 
Cc1cc(C(C(F)(F)F)C(F)(F)F)ccc1NC(=O)c1cccc(I)c1C(=O)N[C@@H](C)C[S+](C)[O-] (stereo partly shown) [Compound 56] | ≥ 80 | ≥ 80 | ≥ 80 |  |  |  |  | 
Cc1cc(C(F)(C(F)(F)F)C(F)(F)F)ccc1NC(=O)c1cccc(Cl)c1C(=O)N[C@@H](C)CS(C)(=O)=O [Compound 80] | ≥ 80 | ≥ 80 | ≥ 80 |  |  |  |  | 
CCSC[C@H](C)NC(=O)c1c(I)cccc1C(=O)Nc1ccc(C(F)(C(F)(F)F)C(F)(F)F)c(F)c1C [Compound 105] | ≥ 80 | ≥ 80 |  |  | 4.71 |  |  | 
Cc1cc(C(F)(C(F)(F)F)C(F)(F)F)ccc1NC(=O)c1cccc(Br)c1C(=O)N[C@@H](C)CS(C)(=O)=O [Compound 129] | ≥ 80 | ≥ 80 |  |  |  |  |  | 
CCS(=O)(=O)C[C@H](C)NC(=O)c1c(I)cccc1C(=O)Nc1ccc(C(F)(C(F)(F)F)C(F)(F)F)c(F)c1C [Compound 130] | ≥ 80 |  | ≥ 80 |  | 3.47 |  |  | 
CCS(=O)(=O)C[C@H](C)NC(=O)c1c(Br)cccc1C(=O)Nc1ccc(C(F)(F)C(F)(F)F)c(Cl)c1C [Compound 138] | ≥ 80 | ≥ 80 |  |  | 3.19 |  |  | 
CCS(=O)(=O)C[C@H](C)NC(=O)c1c(I)cccc1C(=O)Nc1ccc(C(F)(F)C(F)(F)F)c(Cl)c1C [Compound 145] | ≥ 80 |  |  |  |  |  |  | 
CSC[C@H](C)NC(=O)c1c(I)cccc1C(=O)Nc1ccc(C(F)(F)C(F)(F)F)c(F)c1C [Compound 146] | ≥ 80 | ≥ 80 |  |  | 4.04 |  |  | 
CCSC[C@H](C)NC(=O)c1c(I)cccc1C(=O)Nc1ccc(C(F)(C(F)(F)F)C(F)(F)Br)cc1C (stereo partly shown) [Compound 154] | ≥ 80 | ≥ 80 |  | 4.71 | 4.68 |  |  | 
Cc1c(NC(=O)c2cccc(I)c2C(=O)N[C@@H](C)CS(C)(=O)=O)ccc(C(F)(F)C(F)(F)F)c1F [Compound 162] | ≥ 80 |  | ≥ 80 |  | 2.97 |  |  | 
CSC[C@H](C)NC(=O)c1c(I)cccc1C(=O)Nc1ccc(C(F)(F)C(F)(F)F)c(Cl)c1C [Compound 170] | ≥ 80 | ≥ 80 |  |  | 4.2 |  |  | 
Cc1c(NC(=O)c2cccc(I)c2C(=O)N[C@@H](C)CS(C)(=O)=O)ccc(C(F)(C(F)(F)F)C(F)(F)F)c1F [Compound 178] | ≥ 80 |  | ≥ 80 |  | 3.27 |  |  | 
Cc1c(NC(=O)c2cccc(I)c2C(=O)N[C@@H](C)CS(C)(=O)=O)ccc(C(F)(F)C(F)(F)F)c1Cl [Compound 186] | ≥ 80 |  |  |  |  |  |  | 
CCS(=O)(=O)C[C@H](C)NC(=O)c1c(I)cccc1C(=O)Nc1ccc(C(F)(C(F)(F)F)C(F)(F)Br)cc1C (stereo partly shown) [Compound 194] |  |  |  |  |  | 3.47 | 3.49 | 

Compound | mortality at 100 ppm [1] [%] | activity (laying of fertile eggs in %) [2] [%] | mortality at 100 ppm [3] [%] | chromatographic logP [4, 5] | chromatographic logP [4, 6] | chromatographic logP [4, 7] | chromatographic logP [4, 8] | chromatographic logP ([4]; 0.1% aqueous formic acid/acetonitrile, HPLC, reversed-phase C 18, 40 °C, [b] 0.1% aqueous formic acid and acetonitrile at pH 2.7, linear gradient from 10 % to 95 % (v/v) acetonitrile)
CCSC[C@H](C)NC(=O)c1c(I)cccc1C(=O)Nc1ccc(C(C(F)F)C(F)(F)F)cc1C (stereo partly shown) [Compound 210] | ≥ 80 | ≥ 80 | ≥ 80 |  |  | 3.62 | 3.63 | 
CCSC[C@H](C)NC(=O)c1c(I)cccc1C(=O)Nc1ccc(C(F)(C(F)F)C(F)(F)F)cc1C (stereo partly shown) [Compound 218] | ≥ 80 | ≥ 80 | ≥ 80 |  |  | 3.96 | 3.96 | 
CCSC[C@H](C)NC(=O)c1c(I)cccc1C(=O)Nc1ccc(C(C(F)F)C(F)(F)F)cc1F (stereo partly shown) [Compound 219] |  | ≥ 80 | ≥ 80 |  |  | 3.57 | 3.57 | 
C[C@@H](CS(C)(=O)=O)NC(=O)c1c(I)cccc1C(=O)Nc1ccc(C(C(F)F)C(F)(F)F)cc1Cl (stereo partly shown) [Compound 259] | ≥ 80 |  | ≥ 80 |  |  | 2.72 | 2.69 | 
CSC[C@H](C)NC(=O)c1c(Br)cccc1C(=O)Nc1ccc(C(F)(C(F)F)C(F)(F)F)cc1Br (stereo partly shown) [Compound 267] | ≥ 80 | ≥ 80 |  |  |  |  | 3.81 | 
C[C@@H](CS(C)(=O)=O)NC(=O)c1c(I)cccc1C(=O)Nc1ccc(C(C(F)F)C(F)(F)F)cc1Br (stereo partly shown) [Compound 275] | ≥ 80 |  | ≥ 80 |  |  | 2.76 | 2.71 | 
C[C@@H](CS(C)(=O)=O)NC(=O)c1c(I)cccc1C(=O)Nc1ccc(C(F)(C(F)F)C(F)(F)F)cc1F (stereo partly shown) [Compound 283] | ≥ 80 |  | ≥ 80 |  |  | 2.76 | 2.72 | 
CCS(=O)(=O)C[C@H](C)NC(=O)c1c(I)cccc1C(=O)Nc1ccc(C(F)(C(F)F)C(F)(F)F)cc1F (stereo partly shown) [Compound 307] | ≥ 80 |  | ≥ 80 |  |  | 2.94 | 2.89 | 
Cc1c(NC(=O)c2cccc(I)c2C(=O)N[C@@H](C)C[S+](C)[O-])ccc(C(F)(C(F)(F)F)C(F)(F)F)c1F (stereo partly shown) [Compound 331] | ≥ 80 | ≥ 80 |  |  |  |  | 2.78 | 
CC[S+]([O-])C[C@H](C)NC(=O)c1c(I)cccc1C(=O)Nc1ccc(C(F)(C(F)(F)F)C(F)(F)F)c(F)c1C (stereo partly shown) [Compound 339] | ≥ 80 | ≥ 80 |  |  |  |  | 2.97 | 
CCS(=O)(=O)C[C@H](C)NC(=O)c1c(Cl)cccc1C(=O)Nc1ccc(C(F)(F)C(F)(F)F)c(Cl)c1C [Compound 347] | ≥ 80 | ≥ 80 |  |  |  |  | 3.14 | 
CSC[C@H](C)NC(=O)c1c(Cl)cccc1C(=O)Nc1ccc(C(F)(F)C(F)(F)F)c(F)c1C [Compound 355] | ≥ 80 | ≥ 80 |  |  |  |  |  | 3.94
CCSC[C@H](C)NC(=O)c1c(Cl)cccc1C(=O)Nc1ccc(C(F)(F)C(F)(F)F)c(F)c1C [Compound 380] |  |  |  |  | 4.21 |  |  | 
CSC[C@H](C)NC(=O)c1c(Br)cccc1C(=O)Nc1ccc(C(F)(F)C(F)(F)F)c(F)c1C [Compound 388] | ≥ 80 | ≥ 80 |  |  | 3.93 |  |  | 
Cc1c(NC(=O)c2cccc(Br)c2C(=O)N[C@@H](C)CS(C)(=O)=O)ccc(C(F)(F)C(F)(F)F)c1F [Compound 389] | ≥ 80 | ≥ 80 |  |  | 2.86 |  |  | 
CSC[C@H](C)NC(=O)c1c(Cl)cccc1C(=O)Nc1ccc(C(F)(C(F)(F)F)C(F)(F)F)cc1C [Compound 390] | ≥ 80 | ≥ 80 | ≥ 80 |  |  |  |  | 
Cc1cc(C(C(F)(F)F)C(F)(F)F)c(F)cc1NC(=O)c1cccc(Br)c1C(=O)N[C@@H](C)C[S+](C)[O-] (stereo partly shown) [Compound 422] | ≥ 80 | ≥ 80 |  | 2.51 | 2.58 |  |  | 
